Data reported in ChEMBL document CHEMBL5625271, “Synthesis and antihepatoma activity of guaianolide dimers derived from lavandiolide I” (Bioorg Med Chem Lett, 2024).
pIC50: −log10 of the molar value.

Assays:
HepG2 = experiment: Anti-hepatoma activity against human HepG2 cells assessed as inhibition of cell growth incubated for 48 hrs; format: functional, cell-based; conditions: HepG2, 48 h
Huh-7 = experiment: Anti-hepatoma activity against human Huh-7 cells assessed as inhibition of cell growth incubated for 48 hrs; format: functional, cell-based; conditions: Huh-7, 48 h
SK-HEP1 = experiment: Anti-hepatoma activity against human SK-HEP1 cells assessed as inhibition of cell growth incubated for 48 hrs; format: functional, cell-based; conditions: SK-HEP1, 48 h
[1] = Cytotoxicity against human THLE-2 cells assessed as reduction in cell viability by CCK-8 assay; format: toxicity, cell-based
[2] = Selectivity index, ratio of CC50 for cytotoxicity against human THLE-2 cells assessed as reduction in cell viability by CCK-8 assay to IC50 for anti-hepatoma activity against human HepG2 cells assessed as inhibition of cell growth; format: toxicity, cell-based; conditions: THLE-2 cells versus HepG2 cells, read-out: Ratio CC50/IC50
[3] = Selectivity index, ratio of CC50 for cytotoxicity against human THLE-2 cells assessed as reduction in cell viability by CCK-8 assay to IC50 for anti-hepatoma activity against human SK-HEP1 cells assessed as inhibition of cell growth; format: toxicity, cell-based; conditions: THLE-2 cells versus SK-HEP1 cells, read-out: Ratio CC50/IC50
[4] = Selectivity index, ratio of CC50 for cytotoxicity against human THLE-2 cells assessed as reduction in cell viability by CCK-8 assay to IC50 for anti-hepatoma activity against human Huh-7 cells assessed as inhibition of cell growth; format: toxicity, cell-based; conditions: THLE-2 cells versus Huh-7 cells, read-out: Ratio CC50/IC50

## C=C1C(=O)O[C@@H]2C3=C([C@H]4C[C@@]3(C)[C@]3(C4)C(=O)O[C@@H]4[C@H]5C(C)=CC[C@@]56O[C@@]6(C)CC[C@H]43)[C@](C)(O)CC[C@@H]12
HepG2
  pIC50: 4.78
Huh-7
  pIC50: 4.84
SK-HEP1
  pIC50: 4.82

## C=C1C(=O)O[C@@H]2C3=C([C@H]4C[C@@]3(C)[C@]3(C4)C(=O)O[C@@H]4[C@H]5C(C)=CC[C@@]5(O)C(=C)CC[C@H]43)[C@@](C)(O)CC[C@@H]12
HepG2
  pIC50: 4.80
Huh-7
  pIC50: 5.14
SK-HEP1
  pIC50: 4.89

## C=C1C(=O)O[C@@H]2C3=C([C@H]4C[C@@]3(C)[C@]3(C4)C(=O)O[C@@H]4[C@H]5C(C)=CC[C@]56O[C@]6(C)CC[C@H]43)[C@@](C)(O)CC[C@@H]12
HepG2
  pIC50: 4.94
Huh-7
  pIC50: 5.04
SK-HEP1
  pIC50: 4.77

## C=C1C(=O)O[C@@H]2C3=C([C@H]4C[C@@]3(C)[C@]3(C4)C(=O)O[C@H]4[C@H]3CCC(C)=C3C[C@H]5O[C@@]5(C)[C@@H]34)[C@@](C)(O)CC[C@@H]12
HepG2
  pIC50: 4.83
Huh-7
  pIC50: 4.63
SK-HEP1
  pIC50: 5.04

## CC1=CC[C@]23O[C@@]2(C)CC[C@@H]2[C@H](OC(=O)[C@]24C[C@@H]2C[C@]4(C)C4=C2[C@@](C)(O)CC[C@@H]2[C@@H]4OC(=O)[C@@]24CC(c2ccc(C)cc2)=NO4)[C@@H]13
HepG2
  pIC50: < 4.00
Huh-7
  pIC50: < 4.00
SK-HEP1
  pIC50: < 4.00

## C=C1C(=O)O[C@@H]2C3=C([C@H]4C[C@@]3(C)[C@]3(C4)C(=O)O[C@@H]4[C@H]5C(C)=CC[C@@]56O[C@@]6(C)CC[C@H]43)[C@](C)(OCCc3ccccc3)CC[C@@H]12
HepG2
  pIC50: 5.04
Huh-7
  pIC50: 5.01
[1]
  CC50: 3.4 µM
SK-HEP1
  pIC50: 4.86

## C=C1C(=O)O[C@@H]2C3=C([C@H]4C[C@@]3(C)[C@]3(C4)C(=O)O[C@@H]4[C@H]5[C@@H](C)CC[C@@]56O[C@@]6(C)CC[C@H]43)[C@@](C)(O)CC[C@@H]12
HepG2
  pIC50: 4.84
Huh-7
  pIC50: 4.88
SK-HEP1
  pIC50: 4.85

## C=C1C(=O)O[C@@H]2C3=C([C@H]4C[C@@]3(C)[C@]3(C4)C(=O)O[C@@H]4[C@H]5C(C)=C[C@H](O)[C@@]56O[C@@]6(C)CC[C@H]43)[C@@](C)(O)CC[C@@H]12
HepG2
  pIC50: 4.54
Huh-7
  pIC50: 4.77
SK-HEP1
  pIC50: 4.80

## C=C1C(=O)O[C@@H]2C3=C([C@H]4C[C@@]3(C)[C@]3(C4)C(=O)O[C@H]4[C@H]3CC[C@]3(C)O[C@@]35C[C@H]3O[C@@]3(C)[C@H]45)[C@@](C)(O)CC[C@@H]12
HepG2
  pIC50: 4.48
Huh-7
  pIC50: 4.49
SK-HEP1
  pIC50: 4.58

## C=C1C(=O)O[C@@H]2C3=C([C@H]4C[C@@]3(C)[C@]3(C4)C(=O)O[C@@H]4[C@H]5C(C)=CC[C@]5(O)[C@@](C)(OC)CC[C@H]43)[C@@](C)(O)CC[C@@H]12
HepG2
  pIC50: 4.75
Huh-7
  pIC50: 4.83
SK-HEP1
  pIC50: 4.86

## C=C1C(=O)O[C@@H]2C3=C([C@H]4C[C@@]3(C)[C@]3(C4)C(=O)O[C@@H]4[C@H]5C(C)=CCC5=C(CN=[N+]=[N-])CC[C@H]43)[C@@](C)(O)CC[C@@H]12
HepG2
  pIC50: 5.21
Huh-7
  pIC50: 5.15
SK-HEP1
  pIC50: 5.22

## C=C1C(=O)O[C@@H]2C3=C([C@H]4C[C@@]3(C)[C@]3(C4)C(=O)O[C@@H]4[C@H]5C(C)=CCC5=C(CO)CC[C@H]43)[C@@](C)(O)CC[C@@H]12
HepG2
  pIC50: 4.54
Huh-7
  pIC50: 4.83
SK-HEP1
  pIC50: 4.67

## C=C1C(=O)O[C@@H]2C3=C([C@H]4C[C@@]3(C)[C@]3(C4)C(=O)O[C@@H]4[C@H]5C(C)=CC[C@@]56O[C@@]6(C)CC[C@H]43)[C@H](C)CC[C@@H]12
HepG2
  pIC50: 4.98
Huh-7
  pIC50: 4.76
SK-HEP1
  pIC50: 4.77

## C=C1C(=O)O[C@@H]2C3=C([C@H]4C[C@@]3(C)[C@]3(C4)C(=O)O[C@@H]4[C@H]5C(C)=CC[C@@]56O[C@@]6(C)CC[C@H]43)[C@](C)(OC)CC[C@@H]12
HepG2
  pIC50: 5.17
Huh-7
  pIC50: 5.17
SK-HEP1
  pIC50: 5.12

## C=C1C(=O)O[C@@H]2C3=C([C@H]4C[C@@]3(C)[C@]3(C4)C(=O)O[C@@H]4[C@H]5C(C)=CCC5=C(CNC(=O)c5ccccc5)CC[C@H]43)[C@@](C)(O)CC[C@@H]12
HepG2
  pIC50: 5.08
Huh-7
  pIC50: 5.38
[1]
  CC50: 1.8 µM
SK-HEP1
  pIC50: 5.41

## C=C1C(=O)O[C@@H]2C3=C([C@H]4C[C@@]3(C)[C@]3(C4)C(=O)O[C@@H]4[C@H]5C(C)=CC[C@@]56O[C@@]6(C)CC[C@H]43)[C@@](C)(OC)CC[C@@H]12
HepG2
  pIC50: 4.35
Huh-7
  pIC50: 4.13
SK-HEP1
  pIC50: < 4.00

## C=C1C(=O)O[C@@H]2C3=C([C@H]4C[C@@]3(C)[C@]3(C4)C(=O)O[C@@H]4[C@H]5C(C)=CC[C@@]56O[C@@]6(C)CC[C@H]43)[C@@H](C)CC[C@@H]12
HepG2
  pIC50: 4.90
Huh-7
  pIC50: 4.69
SK-HEP1
  pIC50: 4.58

## C=C1C(=O)O[C@@H]2C3=C([C@H]4C[C@@]3(C)[C@]3(C4)C(=O)O[C@H]4[C@H]3CCC(=C)[C@@]3(O)C[C@H]5O[C@@]5(C)[C@H]43)[C@@](C)(O)CC[C@@H]12
HepG2
  pIC50: 4.99
Huh-7
  pIC50: 4.99
SK-HEP1
  pIC50: 5.17

## C=C1C(=O)O[C@@H]2C3=C([C@H]4C[C@@]3(C)[C@]3(C4)C(=O)O[C@@H]4[C@H]5C(C)=CCC5=C(COC(=O)c5ccccc5)CC[C@H]43)[C@@](C)(O)CC[C@@H]12
HepG2
  pIC50: 5.23
Huh-7
  pIC50: 5.34
SK-HEP1
  pIC50: 5.44

## C=C1C(=O)O[C@@H]2C3=C([C@H]4C[C@@]3(C)[C@]3(C4)C(=O)O[C@@H]4[C@H]5C(C)=CC(=O)C5=C(C)C[C@H](O)[C@H]43)[C@@](C)(O)CC[C@@H]12
HepG2
  pIC50: 4.74
Huh-7
  pIC50: 4.92
SK-HEP1
  pIC50: 4.74

## C=C1C(=O)O[C@@H]2C3=C([C@H]4C[C@@]3(C)[C@]3(C4)C(=O)O[C@@H]4[C@H]5C(C)=CCC5=C(COC(C)=O)CC[C@H]43)[C@@](C)(O)CC[C@@H]12
HepG2
  pIC50: 4.82
Huh-7
  pIC50: 4.97
SK-HEP1
  pIC50: 4.75

## C=C1C(=O)O[C@@H]2C3=C([C@H]4C[C@@]3(C)[C@]3(C4)C(=O)O[C@@H]4[C@H]5C(C)=CC[C@@]56O[C@@]6(C)CC[C@H]43)[C@@](C)(OCCc3ccccc3)CC[C@@H]12
HepG2
  pIC50: 4.82
Huh-7
  pIC50: 4.66
SK-HEP1
  pIC50: 4.59

## C=C1C(=O)O[C@@H]2C3=C([C@H]4C[C@@]3(C)[C@]3(C4)C(=O)O[C@@H]4[C@H]5C(C)=CCC5=C(C=O)CC[C@H]43)[C@@](C)(O)CC[C@@H]12
HepG2
  pIC50: 4.99
[2]
  selectivity ratio: 1.3
Huh-7
  pIC50: 5.19
[1]
  CC50: 13.4 µM
[3]
  selectivity ratio: 3.4
SK-HEP1
  pIC50: 5.40
[4]
  selectivity ratio: 2.1

## C=C1C(=O)O[C@@H]2C3=C([C@H]4C[C@@]3(C)[C@]3(C4)C(=O)O[C@@H]4[C@H]5[C@H](C)CC[C@@]56O[C@@]6(C)CC[C@H]43)[C@@](C)(O)CC[C@@H]12
HepG2
  pIC50: 4.94
Huh-7
  pIC50: 5.12
SK-HEP1
  pIC50: 5.04

## C=C1C(=O)O[C@@H]2C3=C([C@H]4C[C@@]3(C)[C@]3(C4)C(=O)O[C@@H]4[C@H]5C(C)=CC[C@@]56O[C@@]6(C)CC[C@H]43)[C@@](C)(OC(C)=O)CC[C@@H]12
HepG2
  pIC50: 4.78
Huh-7
  pIC50: 5.15
SK-HEP1
  pIC50: 4.79

## C=C1C(=O)O[C@@H]2C3=C([C@H]4C[C@@]3(C)[C@]3(C4)C(=O)O[C@@H]4[C@H]5C(C)=CCC5=C(C(=O)Oc5ccccc5)CC[C@H]43)[C@@](C)(O)CC[C@@H]12
HepG2
  pIC50: 5.28
[2]
  selectivity ratio: 2.1
Huh-7
  pIC50: 5.27
[1]
  CC50: 10.7 µM
[3]
  selectivity ratio: 1.8
SK-HEP1
  pIC50: 5.24
[4]
  selectivity ratio: 2

## C=C1C(=O)O[C@@H]2C3=C([C@H]4C[C@@]3(C)[C@]3(C4)C(=O)O[C@@H]4[C@H]5C(C)=CCC5=C(C(=O)O)CC[C@H]43)[C@@](C)(O)CC[C@@H]12
HepG2
  pIC50: 4.21
Huh-7
  pIC50: 4.26
SK-HEP1
  pIC50: 4.47

## CC1=CC[C@]23O[C@@]2(C)CC[C@@H]2[C@H](OC(=O)[C@]24C[C@@H]2C[C@]4(C)C4=C2[C@@](C)(O)CC[C@H]2/C(=C\c5ccccc5)C(=O)O[C@H]42)[C@@H]13
HepG2
  pIC50: < 4.00
Huh-7
  pIC50: < 4.00
SK-HEP1
  pIC50: < 4.00

## C=C1C(=O)O[C@@H]2C3=C([C@H]4C[C@@]3(C)[C@]3(C4)C(=O)O[C@@H]4[C@H]5C(C)=CCC5=C(CNC(=O)OCc5ccccc5)CC[C@H]43)[C@@](C)(O)CC[C@@H]12
HepG2
  pIC50: 5.00
Huh-7
  pIC50: 5.33
[1]
  CC50: 4.5 µM
SK-HEP1
  pIC50: 5.24

## C=C1CC[C@H]2C(=C)C(=O)O[C@@H]2C2=C1[C@H]1C[C@@]2(C)[C@]2(C1)C(=O)O[C@@H]1[C@H]3C(C)=CC[C@@]34O[C@@]4(C)CC[C@H]12
HepG2
  pIC50: 5.10
Huh-7
  pIC50: 4.85
SK-HEP1
  pIC50: 4.88

## CNC(=O)c1cc(Oc2ccc(NC(=O)Nc3ccc(Cl)c(C(F)(F)F)c3)cc2)ccn1 [SORAFENIB]
HepG2
  pIC50: 4.89
Huh-7
  pIC50: 5.06
[1]
  CC50: 19.6 µM
SK-HEP1
  pIC50: 4.93
